Publication PMC10652874, “Investigation into the mechanism of action of the antimicrobial peptide epilancin 15X” (Frontiers in Microbiology, 2023)
Like-named read-outs stand apart in the source and are kept apart here. Where no end group is shown, it is not given here.

Legend:
[1] = system: LiaRS response in B. subtilis BSF2470; assay: LiaRS disk diffusion reporter assay (β-galactosidase, X-Gal); type: cell-based, Bacillus subtilis; conditions: 37°C overnight
Protocol: The LiaRS response was determined via disk diffusion as described previously ([Mascher et al., 2004]). Briefly, B. subtilis strain BSF2470 was grown in LB supplemented with erythromycin (1 μg/mL) overnight at 37°C with shaking. A total of 20 μL of overnight culture was mixed with 100 μL of 20 mg/mL X-Gal (dissolved in DMF) and 5 mL of 0.7% soft LB agar then poured onto a 1.5% LB agar base. The plates were allowed to cool and dry at room temperature for 20 min. The desired molecule was either spotted on a filter paper disk and placed on top of the agar or directly spotted on the agar. The following molecules were tested: ampicillin, 0.5 μL on filter disk, 1 μL directly spotted, 100 mg/mL; compound 1771/LtaS-IN-1, 4 μL, 20 mM (dissolved in DMSO); epilancin 15X, 4 μL, 5 mM; vancomycin, 1 μL, 100 mg/mL; nisin, 4 μL, 2 mM; bacitracin, 4 μL on filter disk, 5 μL directly spotted, 100 mg/mL; water, 5 μL; magainin 2, 10 μL, 1 mM; melittin, 10 μL, 1 mM. The plate was incubated at 37°C overnight. After overnight incubation, the plate was imaged. Compound 1771 (CS-0114233) was purchased from ChemScene LLC.
To investigate the effect of epilancin 15X on the cell envelope, we employed the two-component LiaRS reporter system in B. subtilis (lipid II cycle interfering antibiotic response regulator and sensor; [Mascher et al., 2004]). Briefly, the LiaRS assay is a disk diffusion assay used to screen for the ability of compounds to induce β-galactosidase expression in engineered B. subtilis BSF2470 ([Mascher et al., 2004]). Molecules that produce a blue ring around the edge of the zone of growth inhibition are believed to interfere with the lipid II cycle ([Hachmann et al., 2009]). […] The compound 1771, also called LtaS-IN-1, inhibits lipoteichoic acid (LTA) synthesis ([Richter et al., 2013]) and to the best of our knowledge has not been tested in the LiaRS assay.

[2] = system: LiaRS response in B. subtilis BSF2470; conditions: cited from earlier work
Excerpt: To investigate the effect of epilancin 15X on the cell envelope, we employed the two-component LiaRS reporter system in B. subtilis (lipid II cycle interfering antibiotic response regulator and sensor; [Mascher et al., 2004]). Briefly, the LiaRS assay is a disk diffusion assay used to screen for the ability of compounds to induce β-galactosidase expression in engineered B. subtilis BSF2470 ([Mascher et al., 2004]). Molecules that produce a blue ring around the edge of the zone of growth inhibition are believed to interfere with the lipid II cycle ([Hachmann et al., 2009]). Most membrane disrup ...

[3] = system: B. subtilis BSF2470 (1A980); assay: MIC determination in 96-well microtiter plate; type: cell-based, Bacillus subtilis; conditions: LB, 37°C, 10^5 CFU/mL, OD600 after 18 h
Protocol: (§1) MIC determination was performed in a 96-well microtiter plate as described previously ([Wu et al., 2019]). Sensitive bacterial culture was grown in the appropriate medium (BHI for S. carnosus; LB for B. subtilis) at 37°C overnight. The culture was diluted to 10^5 CFU/mL in medium in each well. Epilancin 15X or its analog was dissolved in water and serially diluted to obtain final concentrations of 20, 10, 5, 2.5, 1.25, 0.625, 0.3125, 0.156, 0.078, 0.039, 0.019, and 0.009 μM. OD600 readings were obtained after 18 h using a Synergy H4 Hybrid Multi-Mode Microplate Reader (BioTeK). Cell-free untreated medium, and untreated cell culture were used as negative controls. The MIC of nisin against B. subtilis BSF2470 was determined following the same methods.

B. subtilis BSF2470 = assay: Membrane permeability study with propidium iodide (flow cytometry); type: cell-based, Bacillus subtilis; conditions: B. subtilis BSF2470, 20 min exposure, 0.5x, 1x, 4x MIC, n = 3
Protocol: (§2) Cultures of S. carnosus TM300 and B. subtilis BSF2470 were grown to OD600 1.0 and diluted to OD600 0.1 in fresh BHI or LB medium, respectively. The culture was then combined with a final concentration of 25 μM PI (ThermoFisher P3566), 1 mM HEPES, and 1 mM glucose. […] Another two tubes were prepared without antibiotic treatment as controls. The culture was analyzed with a BD Biosciences LSR II flow cytometer for S. carnosus and a BD Biosciences LSRFortessa for B. subtilis using excitation at 488 nm with an argon laser and measurement of emission through a band-pass filter at 695/40 nm. A minimum of 30,000 events were detected for each sample. The experiment was repeated three times, and the mean PI uptake value was determined. The results were calibrated such that the mean PI uptake from the 4x MIC nisin-treated cell culture was set as 100% PI uptake.

S. carnosus TM300 [4] = assay: MIC determination in 96-well microtiter plate; type: cell-based, Staphylococcus carnosus; conditions: BHI, 37°C, 10^5 CFU/mL, OD600 after 18 h
Protocol: as §1

[5] = Liposome leakage assay using flow cytometry (HaloTag / AF488 ligand); type: biochemical; conditions: 1 μM peptide, 37°C, 1 h
S. carnosus TM300 [6] = assay: Bright field (Airyscan) microscopy; type: cell-based, Staphylococcus carnosus; conditions: S. carnosus TM300, 0.5 MIC
S. carnosus TM300 [7] = assay: Membrane permeability study with propidium iodide (flow cytometry); type: cell-based, Staphylococcus carnosus; conditions: S. carnosus TM300, 20 min exposure, 0.5x, 1x, 4x MIC, n = 3
Protocol: as §2

S. carnosus TM300 [8] = assay: Agar diffusion bioactivity assay with lipids in flanking wells; type: cell-based, Staphylococcus carnosus; conditions: S. carnosus TM300 on BHI agar, overnight
Protocol: For agar diffusion antimicrobial activity assays, the autoclaved 1.5% agar was prepared in the appropriate medium and cooled in a 40°C water bath for 15 min. A total of 50 μL overnight culture of the sensitive strain was added to the agar and kept in the water bath. A total of 25 mL seeded agar was poured into a sterile OmniTray (Nunc) and allowed to solidify at room temperature for 30 min. An additional 35 mL of seeded agar was poured over the lower solidified agar layer. A sterile 96-well PCR plate was placed in the molten agar upper layer, and the agar was allowed to solidify at 25°C for 30 min. After sufficient solidification, the 96-well PCR plate was removed. Then 20 μL volume of each peptide was dispensed into the wells. Plates were left at 25°C for 30 min until the wells were dried, and the plates were incubated at 37°C overnight. The antibacterial activity was determined by the presence or absence of growth inhibition.
Figure S5. (A) Zones of growt h inhibition of epilancin 15X a nd nisin A against S. carnosus TM30 0 grown on BHI agar plates. The indicated amounts of antibiotics were placed in the well shown in the center of the zone of inhibition. […]

## O=C(COC(=O)Cc1coc2ccc3ccccc3c12)Nc1nnc(-c2ccccc2)o1 [LtaS-IN-1]
[1]
  LiaRS response (blue ring at the edge of the zone of inhibition): did not induce a blue zone

## CC1(C)S[C@@H]2[C@H](NC(=O)[C@H](N)c3ccccc3)C(=O)N2[C@H]1C(=O)O [ampicillin]
[1]
  LiaRS response (blue ring at the edge of the zone of inhibition): did not induce a LiaRS response

## CC[C@@]1([C@@H]2O[C@@H]([C@H]3O[C@@](O)(CO)[C@H](C)C[C@@H]3C)C[C@@H]2C)CC[C@H]([C@]2(C)CC[C@]3(C[C@H](O)[C@@H](C)[C@@H]([C@@H](C)[C@@H](OC)[C@H](C)C(=O)O)O3)O2)O1 [monensin]
[2]; ref Wex et al., 2021
  LiaRS response: do not induce a LiaRS response

## CN[C@H](CC(C)C)C(=O)N[C@H]1C(=O)N[C@@H](CC(N)=O)C(=O)N[C@H]2C(=O)N[C@H]3C(=O)N[C@H](C(=O)N[C@H](C(=O)O)c4cc(O)cc(O)c4-c4cc3ccc4O)[C@H](O)c3ccc(c(Cl)c3)Oc3cc2cc(c3O[C@@H]2O[C@H](CO)[C@@H](O)[C@H](O)[C@H]2O[C@H]2C[C@](C)(N)[C@H](O)[C@H](C)O2)Oc2ccc(cc2Cl)[C@H]1O [vancomycin]
[1]
  LiaRS response (blue ring at the edge of the zone of inhibition): induce a LiaRS response

## Bacitracin
[1]
  LiaRS response (blue ring at the edge of the zone of inhibition): induce a LiaRS response

## colistin
[2]; ref Wex et al., 2021
  LiaRS response: do not induce a LiaRS response

## magainin 2
[1]
  LiaRS response (blue ring at the edge of the zone of inhibition): did not induce a LiaRS response

## melittin
[1]
  LiaRS response (blue ring at the edge of the zone of inhibition): did not induce a LiaRS response

## nisin: lantibiotic, lipid II binding pore former, positive control (ITSISLCTPGCKTGALMGCNMKTATCHCSIHVSK; not fully specified (some residues, bridges); cysteine pairing not given here; UniProt P13068 24-57, looked up) [reference compound]
[3]
  MIC: 0.625 µM
B. subtilis BSF2470
  PI uptake (membrane disruption): more substantial
S. carnosus TM300 [4]
  MIC: 0.5 µM
[5]; POPC-cholesterol liposomes with 0.1% lipid II
  fluorescence signal (pore formation): substantial increase in fluorescence signal
[5]; POPC-cholesterol liposomes without lipid II
  fluorescence signal (pore formation) compared to buffer control: no increase in fluorescence signal
[1]
  LiaRS response (blue ring at the edge of the zone of inhibition): induce a LiaRS response
S. carnosus TM300 [6]
  aggregation phenotype of cells (brightfield): Aggregation was not observed
S. carnosus TM300 [7]
  PI uptake (membrane disruption): more substantial
S. carnosus TM300 [8]
  antagonism of bioactivity (zone of growth inhibition) by purified S. aureus LTA: not

## polymyxin
[2]; ref Wex et al., 2021
  LiaRS response: do not induce a LiaRS response

## tunicamycin
[2]; B. subtilis, ref Mascher et al., 2004
  LiaRS response: positive LiaRS response
